Here are results for one molecule from ChEMBL document CHEMBL4765481, “Sialyltransferase Inhibitors Suppress Breast Cancer Metastasis” (J Med Chem, 2021).

Activity calls are given as the source filed them. The calls are words filed in the database; no cut-off is given here.

The target of experiment [1] is T1, Sialyltransferase ST3Gal-I (Rattus norvegicus) (UniProt Q6H8N0).
T1 sequence (whole entry): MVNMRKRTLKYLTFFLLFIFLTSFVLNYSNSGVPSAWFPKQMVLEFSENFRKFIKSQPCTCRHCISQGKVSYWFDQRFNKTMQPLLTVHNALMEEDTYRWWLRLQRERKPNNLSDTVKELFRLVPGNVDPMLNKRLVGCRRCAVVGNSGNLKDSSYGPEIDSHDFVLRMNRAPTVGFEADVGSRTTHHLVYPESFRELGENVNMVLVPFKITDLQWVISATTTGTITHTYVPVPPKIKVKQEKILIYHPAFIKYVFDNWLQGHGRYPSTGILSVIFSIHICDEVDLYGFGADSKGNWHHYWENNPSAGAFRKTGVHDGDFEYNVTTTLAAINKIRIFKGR
Nature of the experiment: Inhibition of rat alpha-2,3-O-ST3GALI assessed as reduction in sialylated-product formation at 1 mM using p-nitrophenyl T-antigen and CMP-NeuSAc incubated for 15 mins by reverse-phase HPLC analysis relative to control.

In experiment [2] the test system is MDA-MB-231. Nature of the experiment: Inhibition of Sialyltransferase in human MDA-MB-231 cells assessed as reduction in IKKalpha/beta Ser176/180 phosphorylation level at 10 to 20 uM incubated for 48 hrs by immunoblot analysis. The settings on record: dose 10-20 µM. Format: cell-based.
For experiment [3], the system named is MDA-MB-231. Put plainly: Inhibition of Sialyltransferase in human MDA-MB-231 cells assessed as reduction in FAK Tyr925 phosphorylation level at 10 to 20 uM incubated for 48 hrs by immunoblot analysis. In kind it is cell-based. The settings on record: dose 10-20 µM.
Experiment [4] is described as follows: Selectivity ratio of IC50 for of inhibition of rat alpha-2,3-O-ST3GALI to IC50 for inhibition of human alpha-2,6-ST6GAL1.
Experiment [5] has as its system MDA-MB-231. Nature of the experiment: Inhibition of Sialyltransferase in human MDA-MB-231 cells assessed as reduction in integrin isoforms expression (alphaV/alpha5/beta1/beta3/beta4/beta5) at 10 to 20 uM incubated for 48 hrs by immunoblot analysis. In kind it is cell-based. The following applies: dose 10-20 µM.
Experiment [6] concerns the target T2, CMP-N-acetylneuraminate-beta-1,4-galactoside alpha-2,3-sialyltransferase (Rattus norvegicus, UniProt Q02734).
T2 sequence (Q02734 whole entry): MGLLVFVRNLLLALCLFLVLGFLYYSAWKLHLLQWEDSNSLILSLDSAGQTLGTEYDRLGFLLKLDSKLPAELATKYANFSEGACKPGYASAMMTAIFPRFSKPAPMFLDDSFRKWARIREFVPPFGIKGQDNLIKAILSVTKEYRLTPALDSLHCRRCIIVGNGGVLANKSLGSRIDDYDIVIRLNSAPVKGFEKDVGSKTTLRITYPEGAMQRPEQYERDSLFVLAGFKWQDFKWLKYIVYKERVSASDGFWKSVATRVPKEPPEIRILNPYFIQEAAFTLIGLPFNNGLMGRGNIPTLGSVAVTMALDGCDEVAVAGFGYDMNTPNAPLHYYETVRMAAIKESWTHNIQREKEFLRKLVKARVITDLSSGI
Nature of the experiment: Inhibition of rat alpha-2,3-N-ST3GALIII assessed as reduction in sialylated-product formation using Gal-beta1-4Glc and CMP-NeuSAc incubated for 1.5 hrs by reverse-phase HPLC analysis.

With `C[C@H](CCC(=O)OCCOCCOCCN=[N+]=[N-])[C@H]1CC[C@H]2[C@@H]3CC[C@@H]4C[C@H](OC(=O)[C@H](CC(=O)O)Nc5ccc([N+](=O)[O-])c6nonc56)CC[C@]4(C)[C@H]3CC[C@]12C`, the inhibition is 60% in experiment [1], “Dose-dependent effect” in experiment [3] and “Dose-dependent effect” in experiment [5]. In experiment [2], the inhibition entry was “Active”. Further, the Ratio IC50 in experiment [4] was above 139. Also, in experiment [6], the IC50 turned out to be 1740 nM.
